“And” between values parts separate entries of the source, which are not always exact repeats. Equal entries are not always repeated. Toxic doses and inconclusive results are not listed. No stated cut-off is given here; in the data, active means T/C of 150% or more; inactive means T/C below 125%.
Tested on: L1210 leukemia ip in BDF1 mice, survival T/C
Assay: NCI In Vivo Anticancer Drug Screen. Data for tumor model L1210 Leukemia (intraperitoneal) in B6D2F1 (BDF1) mice
Details: endpoint: mean survival time, higher = longer survival
Summary of the method: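 Transplanted-tumor mice were given test agent; controls received vehicle only. Survival readings from the two groups were divided (treated over control).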

[1] = dose: 100.0 mg/kg/injection, schedule: Q01DX001 (ip), vehicle: saline
[2] = dose: 200.0 mg/kg/injection, schedule: Q01DX001 (ip), vehicle: saline
[3] = dose: 400.0 mg/kg/injection, schedule: Q01DX001 (ip), vehicle: saline
[4] = dose: 100.0 mg/kg/injection, schedule: Q01DX001 (ip), vehicle: water
[5] = dose: 100.0 mg/kg/injection, schedule: Q01DX009 (ip), vehicle: saline with Tween-80
[6] = dose: 200.0 mg/kg/injection, schedule: Q01DX009 (ip), vehicle: saline with Tween-80
[7] = dose: 400.0 mg/kg/injection, schedule: Q01DX009 (ip), vehicle: saline with Tween-80
[8] = dose: 75.0 mg/kg/injection, schedule: Q01DX001 (ip), vehicle: saline
[9] = dose: 150.0 mg/kg/injection, schedule: Q01DX001 (ip), vehicle: saline
[10] = dose: 300.0 mg/kg/injection, schedule: Q01DX001 (ip), vehicle: saline
[11] = dose: 100.0 mg/kg/injection, schedule: Q01DX009 (ip), vehicle: saline
[12] = dose: 200.0 mg/kg/injection, schedule: Q01DX009 (ip), vehicle: saline
[13] = dose: 400.0 mg/kg/injection, schedule: Q01DX009 (ip), vehicle: saline
[14] = dose: 100.0 mg/kg/injection, schedule: Q04DX003 (ip), vehicle: saline with Tween-80
[15] = dose: 200.0 mg/kg/injection, schedule: Q04DX003 (ip), vehicle: saline with Tween-80
[16] = dose: 400.0 mg/kg/injection, schedule: Q04DX003 (ip), vehicle: saline with Tween-80
[17] = dose: 100.0 mg/kg/injection, schedule: Q04DX003 (ip), vehicle: saline
[18] = dose: 200.0 mg/kg/injection, schedule: Q04DX003 (ip), vehicle: saline
[19] = dose: 400.0 mg/kg/injection, schedule: Q04DX003 (ip), vehicle: saline
[20] = dose: 100.0 mg/kg/injection, schedule: Q04DX003 (ip), vehicle: Klucel (hydroxypropylcellulose) (HPC)
[21] = dose: 200.0 mg/kg/injection, schedule: Q04DX003 (ip), vehicle: Klucel (hydroxypropylcellulose) (HPC)
[22] = dose: 400.0 mg/kg/injection, schedule: Q04DX003 (ip), vehicle: Klucel (hydroxypropylcellulose) (HPC)
[23] = dose: 50.0 mg/kg/injection, schedule: Q01DX009 (ip), vehicle: saline with Tween-80

Measured: T/C

N#CSCC(=O)c1ccccc1
inactive: dose: 3.0 mg/kg/injection, schedule: Q01DX009 (ip), vehicle: Klucel (hydroxypropylcellulose) (HPC) 104 % of control | dose: 6.0 mg/kg/injection, schedule: Q01DX009 (ip), vehicle: Klucel (hydroxypropylcellulose) (HPC) 101 % of control | dose: 12.0 mg/kg/injection, schedule: Q01DX001 (ip), vehicle: saline 105 % of control | dose: 12.0 mg/kg/injection, schedule: Q01DX009 (ip), vehicle: Klucel (hydroxypropylcellulose) (HPC) 107 % of control | dose: 12.0 mg/kg/injection, schedule: Q04DX003 (ip), vehicle: saline 104 % of control | dose: 25.0 mg/kg/injection, schedule: Q01DX001 (ip), vehicle: saline 113 % of control | dose: 25.0 mg/kg/injection, schedule: Q04DX003 (ip), vehicle: saline 106 % of control | dose: 50.0 mg/kg/injection, schedule: Q01DX001 (ip), vehicle: saline 97 % of control | dose: 50.0 mg/kg/injection, schedule: Q04DX003 (ip), vehicle: saline 101 % of control

CC1=CP(=O)(c2ccccc2)CC1 (stereo not drawn)
inactive: [1] 102 % of control | [2] 102 % of control | [3] 105 % of control

NNC(=O)c1cnccn1
inactive: dose: 16.0 mg/kg/injection, schedule: Q01DX015 (ip), vehicle: water 102 % of control | dose: 32.0 mg/kg/injection, schedule: Q01DX015 (ip), vehicle: water 115 % of control | dose: 64.0 mg/kg/injection, schedule: Q01DX015 (ip), vehicle: water 109 % of control | dose: 80.0 mg/kg/injection, schedule: Q01DX015 (ip), vehicle: water 105 % of control | [4] 96 % of control | dose: 120.0 mg/kg/injection, schedule: Q01DX015 (ip), vehicle: water 113 % of control

CC(=O)NC(=O)CC(O)(c1ccccc1)c1ccccc1
inactive: [5] 96 % of control | [6] 91 % of control | [7] 92 % of control

CCOC(=O)C1=Cc2ccccc2OC1
inactive: [8] 94 % of control | [9] 96 % of control | [10] 91 % of control

CC(C)(SCC(N)C(=O)O)C(N)C(=O)O (stereo not drawn)
inactive: [1] 95 % of control | [11] 103 % of control | [2] 90 % of control | [12] 94 % of control | [3] 87 % of control | [13] 102 % of control

CC1(C)CC(OP(=O)(N2CC2)N2CC2)CC(C)(C)N1O
inactive: dose: 50.0 mg/kg/injection, schedule: Q01DX001 (ip), vehicle: water 102 % of control | [4] 98 % of control | dose: 200.0 mg/kg/injection, schedule: Q01DX001 (ip), vehicle: water 102 % of control

O=C(COc1ccc(Cl)cc1Cl)OCCBr
inactive: dose: 100.0 mg/kg/injection, schedule: Q04DX002 (ip), vehicle: other 96 % of control | dose: 200.0 mg/kg/injection, schedule: Q04DX002 (ip), vehicle: other 118 % of control | dose: 400.0 mg/kg/injection, schedule: Q04DX002 (ip), vehicle: other 93 % of control

CNC(=O)Nc1cc2ccccc2o1
inactive: [14] 101 % of control | [15] 92 % of control | [16] 92 % of control

CCN(CC)Cc1cc(Nc2c3ccc([N+](=O)[O-])cc3nc3ccc(OC)cc23)ccc1O
inactive: dose: 50.0 mg/kg/injection, schedule: Q01DX009 (ip), vehicle: saline 95 % of control | [11] 98 % of control and 100 % of control | [17] 95 % of control | [12] 95 % of control and 109 % of control | [18] 95 % of control | [13] 97 % of control | [19] 90 % of control

C=C(C)C1(CC)C(=O)NC(=O)N(C)C1=O (stereo not drawn)
inactive: dose: 75.0 mg/kg/injection, schedule: Q01DX001 (ip), vehicle: carboxymethylcellulose (CMC) 102 % of control | [8] 97 % of control | dose: 150.0 mg/kg/injection, schedule: Q01DX001 (ip), vehicle: carboxymethylcellulose (CMC) 105 % of control | [9] 102 % of control | dose: 300.0 mg/kg/injection, schedule: Q01DX001 (ip), vehicle: carboxymethylcellulose (CMC) 103 % of control | [10] 108 % of control

CC1=NN(c2ccc(S(=O)(=O)O)cc2)C(=O)/C1=C\c1c(C)[nH]n(-c2ccc(S(=O)(=O)O)cc2)c1=O
inactive: [11] 97 % of control | [17] 91 % of control | [12] 106 % of control | [18] 95 % of control | [13] 92 % of control | [19] 91 % of control

O=C(NC1OCC(O)C(O)C1O)Oc1ccccc1 (stereo not drawn)
inactive: [11] 108 % of control | dose: 100.0 mg/kg/injection, schedule: Q04DX003 (ip), vehicle: water 97 % of control | [12] 97 % of control | dose: 200.0 mg/kg/injection, schedule: Q04DX003 (ip), vehicle: water 96 % of control | [13] 101 % of control | dose: 400.0 mg/kg/injection, schedule: Q04DX003 (ip), vehicle: water 100 % of control

CN(C)c1nnc([N+](=O)[O-])s1
inactive: dose: 62.0 mg/kg/injection, schedule: Q04DX003 (ip), vehicle: Klucel (hydroxypropylcellulose) (HPC) 93 % of control | dose: 123.0 mg/kg/injection, schedule: Q04DX003 (ip), vehicle: Klucel (hydroxypropylcellulose) (HPC) 87 % of control

Nc1ccc(C(=O)Nc2ccc(Nc3ccncc3)cc2)cc1
inactive: dose: 100.0 mg/kg/injection, schedule: Q01DX009 (ip), vehicle: Klucel (hydroxypropylcellulose) (HPC) 112 % of control | [20] 108 % of control | dose: 200.0 mg/kg/injection, schedule: Q01DX009 (ip), vehicle: Klucel (hydroxypropylcellulose) (HPC) 106 % of control | [21] 103 % of control | dose: 400.0 mg/kg/injection, schedule: Q01DX009 (ip), vehicle: Klucel (hydroxypropylcellulose) (HPC) 103 % of control | [22] 106 % of control

CCOC(=O)C(NC(C)=O)(C(=O)OCC)C(C)C(O)c1ccc(OC)c(OC)c1O (stereo not drawn)
inactive: [17] 92 % of control | [18] 113 % of control | [19] 103 % of control

O=CNCc1cnccn1
inactive: [5] 93 % of control | [6] 95 % of control | [7] 97 % of control

CCOC(=O)CN=C(C)OCC
inactive: [5] 100 % of control | [14] 107 % of control | [6] 99 % of control | [15] 97 % of control | [7] 90 % of control | [16] 103 % of control

FC(F)(F)c1cccc(B2OCCNCCO2)c1
inactive: [14] 106 % of control | [15] 95 % of control

CC1=NN(c2ccc(S(=O)(=O)O)cc2Cl)C(=O)C1
inactive: [14] 101 % of control | [15] 98 % of control | [16] 90 % of control

CC(=O)Nc1ccc(/C=N/NC(=O)c2ccc(C)cc2)cc1
inactive: [23] 93 % of control | [6] 90 % of control

CN(C)c1ccc(C=Nc2cc(Cl)ccc2Cl)cc1
inactive: [20] 89 % of control | [21] 88 % of control | [22] 89 % of control

CCNC(C)CC(C)C (stereo not drawn)
inactive: dose: 25.0 mg/kg/injection, schedule: Q01DX009 (ip), vehicle: saline with Tween-80 101 % of control | dose: 25.0 mg/kg/injection, schedule: Q04DX003 (ip), vehicle: saline with Tween-80 95 % of control | [23] 92 % of control | dose: 50.0 mg/kg/injection, schedule: Q04DX003 (ip), vehicle: saline with Tween-80 92 % of control | [5] 98 % of control | [14] 93 % of control and 96 % of control

NC(=O)C1(NC2CCCCC2)CCN(Cc2ccccc2)CC1
inactive: dose: 50.0 mg/kg/injection, schedule: Q01DX009 (ip), vehicle: gum acacia 100 % of control | dose: 100.0 mg/kg/injection, schedule: Q01DX009 (ip), vehicle: gum acacia 100 % of control | dose: 100.0 mg/kg/injection, schedule: Q04DX003 (ip), vehicle: gum acacia 96 % of control | dose: 200.0 mg/kg/injection, schedule: Q01DX009 (ip), vehicle: gum acacia 93 % of control | dose: 200.0 mg/kg/injection, schedule: Q04DX003 (ip), vehicle: gum acacia 96 % of control

O=C(N/N=C/c1ccc(Cl)cc1Cl)c1cccc2ccccc12
inactive: [1] 92 % of control | [3] 86 % of control

COC(=O)c1ccc2oc(=O)cc(C)c2c1O
inactive: [5] 95 % of control | [14] 93 % of control | [6] 100 % of control | [15] 95 % of control | [7] 94 % of control | [16] 93 % of control

Source: PubChem BioAssay AID248 (DTP/NCI, 2004)
